In this assay the test system is scopolamine-induced cognitive/memory dysfunction models. Nature of the assay: one step-through passive avoidance test, scopolamine-induced amnesia. The assay is classed as in vivo, Male Wistar rats. The method, then:
Male Wistar rats (7 weeks old) were used. As a test medicament, (1R,2S,3R,4S)—N-|(1R,2R)-2-[4-(1,2-benzisothiazol-3-yl)-1-piperazinyl-methyl]-1-cyclohexylmethyl]-2,3-bicycl[2.2.1]heptanedicarboxylmide (Compound A) was suspended in 0.5% methyl cellulose (MC) solution. As an agent for inducing amnesia, scopolamine (manufactured by Wako Pure Chemical Industries, Ltd., product No. 198-07901), which is an acethylcoline receptor blocker, was dissolved in saline solution (manufactured by TERUMO CORPORATION). Compound A at a dose of 3 mg/kg or 30 mg/kg, or 0.5% MC as a control was orally administered to the animals one hour prior to the training step in the one step-through passive avoidance test, and then, scopolamine at a dose of 0.5 mg/kg or a saline solution as a control was subcutaneously administered to the animals 30 minutes prior to the training step. The volume of each solution to be administered was 5 ml/kg each.
The one step-through passive avoidance test in rats was carried out in the following manners with using an apparatus consisting of a light-dark box and an electric stimulator (manufactured by O'hara & Co., Ltd., product no. PA-2030A) as an experimental apparatus. Namely, on Day 1, after the medicament and the agent for inducing amnesia were administered, the rats were put into the light box of the experimental apparatus where the back of each rat was directed to the dark box. Then, 10 seconds later, a guillotine door set at the border between the dark box and the light box was opened. Due to the habits of the rats, once the rats entered into the dark box, the guillotine door was quickly closed. At three seconds after the entering into the dark box, an electroconvulsive shock (0.5 mA, for 3 seconds) was given to the rats. Again, the guillotine door was opened, and after the rats spontaneously returned to the light box, the animals were transferred into the home cage. The period between the time just after the guillotine door was opened and the time at which the rats entered into the dark box was measured as a step-through latency.
On Day 2 of the experiment, a test was carried out about 24 hours after the training. The procedures of the test were carried out in the same manner to the training step except that an electroconvulsive shock was not given. The step-through latency in the test was measured up to 300 seconds, and the step-through latency over 300 seconds was regarded as 300 seconds. FIG. 1 and FIG. 2 show the effects of Compound A on the scopolamine-induced cognitive/memory dysfunction models in the one step-through passive avoidance test when it was orally administered at a dosage of 3 mg/kg or 30 mg/kg. […] The number of the animals was 15 per group, and the data was expressed in mean±SEM.

The structures appear in SMILES notation.

As to `O=C1[C@@H]2[C@@H]3CC[C@@H](C3)[C@@H]2C(=O)N1C[C@@H]1CCCC[C@H]1CN1CCN(c2nsc3ccccc23)CC1` [Compound A], the “step-through latency during the training” value (Compound A 3 mg/kg orally one hour prior to training, scopolamine 0.5 mg/kg s.c. 30 minutes prior, vs 0.5% MC+scopolamine) is reported as “slightly shortened”. Further, the “step-through latency during the test” value (Compound A 30 mg/kg orally plus scopolamine 0.5 mg/kg s.c., test about 24 hours after training, vs 0.5% MC+scopolamine) was “significantly extended”. Further, the “improving effect of scopolamine-induced cognitive/memory dysfunctions” value (overall finding of the passive avoidance test in rats, oral administration) is “exhibited an improving effect”.
For the compound `CN1[C@@H]2C[C@@H](OC(=O)[C@H](CO)c3ccccc3)C[C@H]1[C@@H]1O[C@@H]12` [scopolamine, reference compound], the “step-through latency during the training” value (scopolamine 0.5 mg/kg s.c. alone (with 0.5% MC), vs saline solution) is recorded as “did not affect”. Further, the “step-through latency during the test” value (scopolamine 0.5 mg/kg s.c. alone (with 0.5% MC), vs saline solution, about 24 hours after training) is on record as “significantly shorter”.

The record behind these values is patent US8552000B2, “Therapeutic agent for senile dementia” (Dainippon Sumitomo Pharma Co., Ltd., priority 2003, dated 2013).
